Test [1] relates to children with non-syndromic autism spectrum disorder (ASD) and language impairment. Briefly: Randomized placebo-controlled trial: Autism Symptoms Questionnaire (ASQ). The following applies: lower = less autism symptoms; for ASQ Stereotypic behavior, estimated effect / ASQ Total score, estimated effect: calcium salt. It is filed as in vivo, human. The protocol: The Autism Symptoms Questionnaire (“ASQ) is a 34-item checklist (The Center for Autism and Related Disorders) that assesses social interaction (12 items, range 0-4), stereotyped behavior (7 items, range 0-4), communication symptoms (15 items, range 0-5) and total symptoms (34 items, […]). […] This two-arm double-blind randomized placebo-controlled parallel study with a 1:1 allocation was performed at Arkansas Children's Research Institute (Little Rock, Ark., USA) from 4 Jun. 2012 to 22 Nov. 2013. Parent and teacher questionnaires were requested at baseline and 6 and 12 weeks after starting treatment. Parents were asked to deliver baseline questionnaires to teachers or therapists. After the first visit, questionnaires were mailed to the parents and teachers at least 1 week prior to the target date of completion. Parents were asked to bring the completed teacher and parent 12-week questionnaires to the final assessment. Other questionnaires were returned in a preaddressed postage-paid envelope. The target dose of the intervention (INN: DL folinic acid calcium salt; USAN: leucovorin calcium) was 2 mg kg^−1 per day (maximum 50 mg per day) in two equally divided doses with half of the target dose given during the first 2 weeks. Dye-free, milk-product-free, vegetarian capsules were provided in three strengths (5, 10 and 25 mg) by Lee Silsby Compounding Pharmacy (Cleveland Heights, Ohio, USA). Certificate of analysis was provided for each capsule strength by an independent analytical service (Eagle Analytical Services, Houston, Tex., USA) for each batch of capsules produced. In all cases, potency was at least 99%. Secondary outcomes. Secondary outcome measures included the Ohio Autism Clinical Impression Scale (OACIS), Vineland Adaptive Behavior Scale 2nd Edition (VABS) Survey Interview Form and several questionnaires. Parents and teachers were asked to complete the Aberrant Behavior Checklist (ABC), Social Responsiveness Scale (SRS) and Behavioral Assessment System for Children 2nd Edition (BASC). Only parents were asked to complete the Autism Impact Measure (AIM) and Autism Symptoms Questionnaire (ASQ). Secondary outcome measures were analyzed using the mixed-model regression. Because of the large number of secondary outcomes, correction for multiple comparisons was conducted using the false discovery rate.

The test system is the same in test [2]. The test is described as follows: Randomized placebo-controlled trial: Autism Impact Measure (AIM). Format: in vivo, human. The following applies: lower = less impact. The protocol:
The Autism Impact Measure (“AIM”) is a 45-item parent-reported measure of the frequency and impact of core ASD symptoms during the past 2 weeks using two 5-point scales of increasing severity ranging from 1 to 5.51 The Frequency and Impact scores range 45-225. This two-arm double-blind randomized placebo-controlled parallel study with a 1:1 allocation was performed at Arkansas Children's Research Institute (Little Rock, Ark., USA) from 4 Jun. 2012 to 22 Nov. 2013. Parent and teacher questionnaires were requested at baseline and 6 and 12 weeks after starting treatment. Parents were asked to deliver baseline questionnaires to teachers or therapists. After the first visit, questionnaires were mailed to the parents and teachers at least 1 week prior to the target date of completion. Parents were asked to bring the completed teacher and parent 12-week questionnaires to the final assessment. Other questionnaires were returned in a preaddressed postage-paid envelope. The target dose of the intervention (INN: DL folinic acid calcium salt; USAN: leucovorin calcium) was 2 mg kg^−1 per day (maximum 50 mg per day) in two equally divided doses with half of the target dose given during the first 2 weeks. Dye-free, milk-product-free, vegetarian capsules were provided in three strengths (5, 10 and 25 mg) by Lee Silsby Compounding Pharmacy (Cleveland Heights, Ohio, USA). Certificate of analysis was provided for each capsule strength by an independent analytical service (Eagle Analytical Services, Houston, Tex., USA) for each batch of capsules produced. In all cases, potency was at least 99%. Secondary outcomes. Secondary outcome measures included the Ohio Autism Clinical Impression Scale (OACIS), Vineland Adaptive Behavior Scale 2nd Edition (VABS) Survey Interview Form and several questionnaires. Parents and teachers were asked to complete the Aberrant Behavior Checklist (ABC), Social Responsiveness Scale (SRS) and Behavioral Assessment System for Children 2nd Edition (BASC). Only parents were asked to complete the Autism Impact Measure (AIM) and Autism Symptoms Questionnaire (ASQ). Secondary outcome measures were analyzed using the mixed-model regression. Because of the large number of secondary outcomes, correction for multiple comparisons was conducted using the false discovery rate.

Setting [3] is: vs placebo, mixed-model regression.
[4] abbreviates: vs placebo, mixed-model regression, listed as folinic acid.

Structures can show the parent of a compound that is named as a salt.

The values that follow come from patent US20190111059A1, “COMPOSITIONS AND METHODS FOR TREATING AUTISM SPECTRUM DISORDER” (Marinus Pharmaceuticals, Inc., priority 2017, published 2019).

As for `Nc1nc2c(c(=O)[nH]1)N(C=O)C(CNc1ccc(C(=O)N[C@@H](CCC(=O)O)C(=O)O)cc1)CN2` (mixture of isomers) [Folinic acid, DL folinic acid calcium salt], in test [1] (2 mg kg^−1 per day, 12 weeks, baseline 3.1), the “ASQ Stereotypic behavior, 12-week assessment mean” value was found to be 3.2 Raw Score. For the same compound, in test [1] (2 mg kg^−1 per day, 12 weeks, baseline 3.5), the “ASQ Social, 12-week assessment mean” value was determined as 3.3 Raw Score. Further, the “ASQ Communication, 12-week assessment mean” value in test [1] (2 mg kg^−1 per day, 12 weeks, baseline 4.7) is 4.7 Raw Score. Further, the “ASQ Total score, 12-week assessment mean” value in test [1] (2 mg kg^−1 per day, 12 weeks, baseline 11.3) was 11.2 Raw Score. Moreover, in test [1] (setting [3]), the “ASQ Communication, estimated effect” value is recorded as 0.0 Raw Score; the “ASQ Social, estimated effect” value is given as −0.1 Raw Score; the “ASQ Stereotypic behavior, estimated effect” value is given as −0.2 Raw Score; the “ASQ Total score, estimated effect” value is −0.3 Raw Score. Also, in test [1] (setting [4]), the “ASQ Stereotypic behavior, estimated effect” value is “significantly improved” and the “ASQ Total score, estimated effect” value is reported as “significantly improved”. In addition, the “AIM Impact, 12-week assessment mean” value in test [2] (2 mg kg^−1 per day, 12 weeks, baseline 105) amounted to 87 Raw Scores. Moreover, the “AIM Frequency, 12-week assessment mean” value in test [2] (2 mg kg^−1 per day, 12 weeks, baseline 135) is 114 Raw Scores. Besides, in test [2] (setting [3]), the “AIM Frequency, estimated effect” value is given as −2.2 Raw Scores and the “AIM Impact, estimated effect” value is listed as 3.4 Raw Scores.
